Test: gradient 5% acetonitrile 3 min, to 50% in 2 min, to 85% in 15 min, held 3 min, 100 µL/min
Conditions: column: Zorbax Extend-C18 2.1 x 50 mm; eluents: water / acetonitrile, 0.1% formic acid
Outline: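 Pure standards were run in mixtures of ~100 molecules by HPLC coupled to a quadrupole time-of-flight mass spectrometer. The column was a Zorbax Extend-C18 (2.1 × 50 mm, 1.8 μm) at 100 μL/min, with water and acetonitrile each containing 0.1% formic acid, in positive and negative ionization mode. Dead and dwell volumes were 40 μL and 900 μL. Retention time was taken from computationally picked adduct peaks, each manually inspected, with data collected over 3 months.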

SMILES | RP-LC retention time
CCOC(=O)C1CCC(CNC(=O)Nc2ccc(-c3nc(-c4ccccc4)co3)cc2)CC1 (stereo not given) | 1100 s
Brc1cncc(-c2nc(-c3ccc4c(c3)ncn4CCN3CCCC3)no2)c1 | 631 s
Cc1sc(NC(=O)c2ccc3c(c2)OCO3)nc1-c1ccc2c(c1)N(C)C(=O)CO2 | 823 s
O=C(Nc1ccncc1)c1cc([N+](=O)[O-])ccc1Cl | 638 s
COc1ccc(-c2noc(CN3N=NC4C(=O)N(c5ccc(OC)c(OC)c5)C(=O)C43)n2)cc1OC (stereo not given) | 798 s
COc1cc(-c2nnc(-c3ccc(C)c(S(=O)(=O)N4CCC(C)CC4)c3)o2)cc(OC)c1OC | 1170 s
Cc1sc(-c2ccn[nH]2)cc1NC(=O)c1cccc(N(C)C)c1 | 995 s
CCN1c2ccc(C)cc2C(=O)NC12CCN(C(=O)c1ccc(C)cc1)CC2 | 849 s
COc1cc(NC(=O)Nc2nccn(-c3cc(C)cc(C)c3)c2=O)cc(OC)c1 | 913 s
O=C(Nc1ccccc1Cl)N1CC(F)(F)C[C@H]1CN1CCCC1 | 627 s
CC(=O)N1CCc2ccccc2C1C(=O)NCc1ccc(Br)cc1 (stereo not given) | 835 s
CCC(=O)N1CCc2cc(N3CC(C(=O)NCC(C)C)CC3=O)ccc21 (stereo not given) | 687 s
O=C(CSc1ccc(N2CCCC(C(=O)NC3CC3)C2)nn1)Nc1ccc(F)cc1 (stereo not given) | 629 s
Cc1noc(-c2nn(C)c3c2CN(C(=O)Nc2ccc(Cl)cc2)CC3)n1 | 790 s
COc1ccc(S(=O)(=O)N2[C@H]3CC[C@@H]2c2cncnc2C3)cc1 | 715 s
COc1ccc(-c2c(C)noc2NC(C)=O)cc1S(=O)(=O)Nc1cc(Cl)ccc1C | 792 s
CC(C)c1ncc(CO)n1Cc1c(Cl)cccc1Cl | 663 s
O=C(Nc1cccc(-c2nccnc2N2CCOCC2)c1)Nc1ccc(F)c(Cl)c1 | 868 s
Cn1ccc(C(=O)Nc2sccc2C(N)=O)n1 | 623 s
CCN1C(=O)COc2ccc(-c3noc(-c4ccc(OC)cc4OC)n3)cc21 | 1040 s
Cc1nc(OCC(=O)NC2CCCCC2)c2c(-c3cccc(F)c3)noc2n1 | 990 s
CCCNC(=O)N1CCCCCC1CN1CCCC1 (stereo not given) | 580 s
Cc1ccc(C)c(NC(=O)N2CCN(CCn3cnc4cccnc43)CC2)c1 | 596 s

SMILES | RP-LC retention time
COc1ccc(-c2noc(Cc3nnc(-c4cccc(Br)c4)o3)n2)cc1OC | 988 s
Cc1nc2n(c(=O)c1C)CCN2CC(=O)NCc1ccco1 | 596 s
Cc1cc2[nH]c(C(=O)Nc3ccccc3Br)c(CN3CCOCC3)c2s1 | 708 s
Cc1c(C(=O)C(=O)N2CCc3ccccc32)c2ccccc2n1C | 902 s
COc1ccc(Nc2c(-c3ccc(O)c(OC)c3)nc3nc(C)cc(C)n23)cc1 | 617 s
Cc1sc(-c2nnc(C(=O)N3CCCC3)o2)cc1S(=O)(=O)NCc1cccnc1 | 1310 s
CCN1CCN(C(=O)C2CCN(CCc3cn(CC)c4ncccc34)CC2)CC1 | 525 s
Cc1ccc(C(=O)N2CCCCCNC(=O)[C@@H]3CCC[C@@H]32)s1 | 740 s
O=C(COc1ccc(-c2cnc3ccccc3n2)cc1)NCCN1CCCC1 | 623 s
Cc1ccc(NC(=O)C2(Cc3ccccc3)CCCCC(=O)N2)cc1 (stereo not given) | 848 s
CCOC(=O)N1CCC2(CC1)N=C(c1ccc(OCC)cc1)CC(c1cc(Cl)ccc1O)N2 (stereo not given) | 726 s
O=C(c1cc(-c2ccncc2)n[nH]1)N1CCC(C(=O)N2CCc3ccccc32)CC1 | 614 s
O=C(N[C@H]1C[C@@H]2C[C@H]1CN2C(=O)c1ccccc1Cl)c1ccccc1 | 757 s
O=C(c1cc(=O)c(OCc2ccc(F)cc2)co1)N1CCN(c2ncccn2)CC1 | 696 s
Cc1noc(-c2ccc(NC(=O)c3cccnc3)cc2)n1 | 824 s
O=C(CN1C(=O)C(C(=O)N2CCCCCC2)Sc2ccccc21)N1CCN(c2ncccn2)CC1 (stereo not given) | 784 s
COCc1cc(=O)n(CC(=O)Nc2ccccc2OC)c(N2CCOCC2)n1 | 846 s
CC(C)(C)NS(=O)(=O)c1cncc(-c2cc(F)c3nc(N)nn3c2)c1 | 750 s
Cc1ccc(NC(=O)CCC(=O)O)c(C)c1 | 627 s
Cc1ccc(-c2csc(Cc3nc(-c4cccc(F)c4)no3)n2)cc1C | 1360 s
CCn1cc(-c2nc(CC(=O)NCc3cccc(C)c3)cs2)c2cccnc21 | 892 s
Cc1scc2nc(C3CCC3)nc(N3CCC(C(=O)NCc4ccc(N(C)C)cc4)CC3)c12 | 604 s
CCn1cc(-c2ccc(C)cc2)cc1C(=O)NC1CC1 | 991 s

SMILES | RP-LC retention time
Cc1ccc(S(=O)(=O)N2CC(c3nc(C)no3)C3(CCOCC3)C2)cc1 (stereo not given) | 845 s
Cc1cc(OCC(=O)Nc2cccc(Br)c2)nc(N2CCCC2)n1 | 682 s
COc1cc(NC(=O)c2ccccc2)c(OC)cc1NC(=O)C=C(C)C | 887 s
COC(=O)c1c(-c2cccc(F)c2)noc1NCCc1c(C)noc1C | 968 s
CCn1c(SCC(=O)Nc2nc(-c3ccccc3)cs2)nnc1-c1nonc1NC(C)=O | 897 s
Cc1ccc(C2Cn3nnc(-c4nc(-c5ccccc5)no4)c3CO2)c(C)c1 (stereo not given) | 1240 s
Cc1nn(-c2ccccc2)c(C)c1S(=O)(=O)N1CCC(C(=O)Nc2ccc3c(c2)OCO3)CC1 | 905 s
COCC(=O)Nc1ccc(-c2nc(-c3ccc(C)cc3C)co2)cc1 | 1110 s
CCOC(=O)N1CCN(C(=O)CSc2ccc(-c3sc(C)nc3C)nn2)CC1 | 632 s
Cc1c(-c2noc(C(=O)NCCCN3CCCC(C)C3)n2)oc2ccccc12 (stereo not given) | 722 s
CCC(=O)N1c2ccccc2NC2=C(C(=O)CC(C)(C)C2)C1c1ccc(O)c(OC)c1 (stereo not given) | 703 s
Cc1cccc(-n2c(=O)c3c(cc(C)n3C)n(CC(=O)N(C)c3ccccc3)c2=O)c1 | 864 s
COc1ccc(OC)c(C2CN(C(=O)C3CCCC3)CC2C(=O)N2CCCCC2)c1 (stereo not given) | 831 s
Cc1ccc(-c2nc(-c3ccnc(N4CCCC4)c3)no2)s1 | 733 s
Cn1nc2n(c1=O)CCN(C(=O)CC1=CCCCC1)CC2 | 656 s
Cc1ccc(F)cc1NC(=O)c1cc(C(C)C)n2nccc2n1 | 1230 s
CC1(C(=O)Nc2ccc(F)c(Cl)c2)Oc2cccnc2NC1=O (stereo not given) | 730 s
COC(=O)c1sccc1NC(=O)Cn1c(C)cc(C)c(-c2nc(-c3ccccc3)no2)c1=O | 1060 s
CC(C)Nc1nc(N2CCN(C3CCCCC3)CC2)nc2c1cnn2C | 648 s
Cn1nc(-c2ccccc2)cc1C(=O)N1CCC(C(=O)Nc2nccs2)CC1 | 712 s
COC(=O)C1=CN(c2ccc(OC)c(Cl)c2)c2ccccc2S1(=O)=O | 856 s
CCn1c(=O)c(N2CCC(NC(=O)NCCCOC)CC2)nc2ccccc21 | 707 s
COC(=O)c1c(C)[nH]c(C(=O)N2CCCC(C(=O)NCCN(C)C3CCCCC3)C2)c1C (stereo not given) | 626 s

SMILES | RP-LC retention time
O=C(Nc1ccc2c(c1)OCCO2)N1CCC2(CC1)Nc1ccccc1-n1cccc12 | 934 s
O=C([C@@H]1C[C@H](Oc2ccccc2)CN1C(=O)c1ccco1)N1CCCC1 | 603 s
O=C(c1ccc(CS(=O)c2ccccc2Cl)o1)N1CCN(c2ccccn2)CC1 (stereo not given) | 604 s
Cn1cc(CN2CCC(C(=O)N3CCN(c4ccccc4F)CC3)CC2)c2cc(Cl)ccc21 | 794 s
CC[C@H](C)Nc1c(C(=O)OC)c(=O)[nH]c2c(Cl)cccc12 | 783 s
Cc1noc([C@H]2CCN(C3CCSCC3)C[C@H]2NC(=O)C2CC2)n1 | 576 s
O=C(NC1CCCCC1)c1c2c(nc3ccccc13)CCC2 | 690 s
COCc1ncc(C)n1C1CCN(C(=O)c2noc(C)c2Cc2c(C)noc2C)C1 (stereo not given) | 617 s
Cc1ccc(C)c(NC(=O)N(C)CC2CCOC2)c1 (stereo not given) | 705 s
CCn1c(=O)sc2cc(S(=O)(=O)N3CCC(C(=O)NC4CCCC4)CC3)ccc21 | 845 s
CCC(=O)Nc1cc2c(cc1S(=O)(=O)c1ccc(C)cc1)n(C)c(=O)n2C | 767 s
CC(=O)n1nc(-c2ccc(C)c(C)c2)nc1N | 813 s
CC(Cc1ccco1)NC(=O)C1CCN(S(C)(=O)=O)CC1 (stereo not given) | 632 s
CCOC(=O)c1c(C)oc2nc(C)nc(NCCN(C)Cc3ccccc3)c12 | 701 s
CN(C)CC1(O)CCC2(CCN(C(=O)CC3CCCC3)CC2)CC1 | 598 s
CC1=C(c2ccc(C)c(C)c2)S(=O)(=O)N=C1N1CCC(C(=O)NCCN2CCOCC2)CC1 | 648 s
Cc1cc(C)cc(NC(=O)Nc2nccn(-c3cc(Cl)ccc3C)c2=O)c1 | 1150 s
CCc1ccc(OCC(=O)Nc2cnn(C)c(=O)c2N2CCOCC2)cc1 | 889 s
Cc1cc(C)cc(NC(=O)Cn2nc(N3CCC(C)CC3)c3ccccc3c2=O)c1 | 1100 s
Cc1sc2ccn(C)c(=O)c2c1C(=O)N1CCN(c2cccc(Cl)c2)CC1 | 844 s
Cc1ccc(-c2cc(C(=O)NC3CC3)n(C)c2)cc1 | 915 s

Source: the METLIN SMRT retention time set (Domingo-Almenara et al. 2019)
